Laboratory results taken from patent publication US6793925B2 (priority 1999, dated 2004).
Converted amounts (≈) assume the structure as drawn. Bridge positions count the residues as written; N and C are the ends. Square brackets hold non-standard residues; d marks the D form. Peptide text beside a SMILES is read from it. * marks the point of attachment. Asp(3S-OH) = N[C@H](C(=O)O)[C@H](O)C(=O)O; Thr(4-Cl) = N[C@H](C(=O)O)[C@H](O)CCl; X1 = CCCCCCCCCCCC(O)C(O)CC(=O)*; aThr = C[C@H](O)[C@H](N)C(=O)O; X2 = CCCCCCCCCC(O)CC(=O)*; dDab = NCC[C@@H](N)C(=O)O; Dab = NCC[C@H](N)C(=O)O; Dhb = C/C=C(\N)C(=O)O

Key:
Type in all cases: cell-based
Details in all cases: complete inhibition of growth, Sabourauds and dextrose broth, 35° C., 48 hr, highest concentration 20 μg/ml
[1] = system: Histoplasma capsulatum
[2] = system: Cryptococcus neoformans; assay: microtiter broth dilution antifungal assay (MIC)
Protocol: (§1) The presence or amount of a pseudomycin or mixture of pseudomycins can be determined by measuring the antifungal activity of a preparation. Antifungal activity was determined in vitro by obtaining the minimum inhibitory concentration (MIC) of the preparation using a standard agar dilution test or a disc-diffusion test. A preparation of one or more pseudomycins can be an extract of a cell culture, or a more purified mixture. A typical fungus employed in testing antifungal activity is C. albicans. Antifungal activity was considered significant when the test preparation caused 10-12 mm diameter zones of inhibition on Candida albicans x657 seeded agar plates.
(§2) The antifungal studies were conducted using a microtiter broth dilution assay according to National Committee for Clinical Laboratory Standards guidelines in 96 well microtiter plates. Sabourauds and dextrose broth was adjusted to contain 2.5×10^4 conida/ml. Test compound was dissolved in water and tested in two-fold dilutions starting with the highest concentration of 20 μg/ml. Plates were incubated at 35° C. for 48 hr.

[3] = system: Aspergillus fumigatus; assay: microtiter broth dilution antifungal assay (MIC)
Protocol: as §1, §2

[4] = system: Candida albicans; assay: microtiter broth dilution antifungal assay (MIC)
Protocol: as §1, §2

[5] = system: C. parapsilosis; assay: microtiter broth dilution antifungal assay (MIC)
Protocol: as §1, §2

| SMILES | MIC [1] | MIC [2] [µg/mL] | MIC [3] [µg/mL] | MIC [4] [µg/mL] | MIC [5] [µg/mL] |
| --- | --- | --- | --- | --- | --- |
| C/C=C1\NC(=O)[C@H]([C@H](C)O)NC(=O)[C@H](CCN)NC(=O)[C@H](CCCCN)NC(=O)[C@H](CC(=O)O)NC(=O)[C@@H](CCN)NC(=O)[C@@H](NC(=O)CC(O)CCCCCCCCC)COC(=O)[C@H]([C@H](O)CCl)NC(=O)[C@H]([C@H](O)C(=O)O)NC1=O (stereo partly drawn) [Pseudomycin B′, pseudomycin B′] (X2-S[dDab]DK[Dab][aThr][Dhb][Asp(3S-OH)][Thr(4-Cl)]; ester 1-C) | 1.25-5.0 μ/ml | 1.25 (≈ 1.06 µM) | >20 | 10 (≈ 8.48 µM) | 10 (≈ 8.48 µM) |
| C/C=C1\NC(=O)[C@H]([C@H](C)O)NC(=O)[C@H](CCN)NC(=O)[C@H](CCCCN)NC(=O)[C@H](CC(=O)O)NC(=O)[C@@H](CCN)NC(=O)[C@@H](NC(=O)CC(O)C(O)CCCCCCCCCCC)COC(=O)[C@H]([C@H](O)CCl)NC(=O)[C@H]([C@H](O)C(=O)O)NC1=O (stereo partly drawn) [Pseudomycin A′, pseudomycin A′] (X1-S[dDab]DK[Dab][aThr][Dhb][Asp(3S-OH)][Thr(4-Cl)]; ester 1-C) | 5.0 µg/mL (≈ 4.04 µM) | 1.25 (≈ 1.01 µM) | >20 | 2.5 (≈ 2.02 µM) | 5.0 (≈ 4.04 µM) |
